In patent US12043652B2, “Engineered extracellular receptor constructs and uses thereof” (TRUSTEES OF BOSTON UNIVERSITY, priority 2020, dated 2024):
“Also recorded” adds a separate entry of the source.

Legend:
Format in all cases: cell-based
[1] = target: T1, catalytically inactive NS3 protease (NS3^S139A, dNS3) sensor (Hepatitis C virus genotype 1a, UniProt P27958, S1165A); conditions: drug grazoprevir; histograms of H2B-mCherry, flow cytometry, 48 hours post-drug addition
T1 construct: transmembrane domain with γ-secretase cleavage site (TMD) (internal); Gal4-VP64 intracellular domain (C); expressed in transfected cells
Procedure: FIGS. 2A-2B. (FIG. 2A) Schematic of antiviral drug sensor which is designed to sense Hepatitis C Virus NS3 inhibitors. (FIG. 2B) Two sensors with varying sensitivity to antiviral drug based on the affinity of their intramolecular peptide. Activity of the sensor is shown as histograms of intracellular domain driven H2B-mCherry expression in clonal cell lines, measured by flow cytometry, 48 hours post-drug addition. […] Red arrows are drawn to highlight differences in sensitivity to ligand. Drug is grazoprevir or delivery vehicle control, DMSO.
(§1) Upon addition of inducer and either gamma secretase inhibitor, H2B-mCherry signal is ablated. Images are taken 24 hours after transfection and drug addition. A fluorescent transfection marker is shown as a smaller corresponding image. […] Scale bar 50 μm.
For proof of concept, the ICD chosen was a synthetic transcription factor, Gal4-VP64, which activates UAS promoter driven H2B-mCherry gene expression. […] The substitution of the high affinity peptide for low affinity peptide appears to increase the sensitivity of the sensor, consistent with the theory of competitive displacement kinetics.

[2] = tested on: γ-secretase; assay: Gamma secretase dependence of two sensors (H2B-mCherry reporter with inducer plus gamma secretase inhibitor); conditions: dNS3-(EDVVCC) and BCL-xL-BH3(G22) sensors, inducer grazoprevir 3 μM or ABT-737 3 μM, DAPT 5 μM, Compound E 1 μM, 24 hours
Procedure: FIG. 4 Gamma secretase dependence of two distinct sensors. dNS3-(EDVVCC (SEQ ID NO: 57))-TMD-Gal4-VP64 and BCL-xL-BH3(G22)-TMD-Gal4-VP64 sensors were tested for gamma secretase dependence via the addition of gamma secretase inhibitors DAPT and Compound E (Cpd E). […] Upon addition of inducer and either gamma secretase inhibitor, H2B-mCherry signal is ablated. Images are taken 24 hours after transfection and drug addition. A fluorescent transfection marker is shown as a smaller corresponding image. Drug concentrations are as follows: NS3 inducer, grazoprevir 3 μM; BCL-xL inducer, ABT-737 3 μM; DAPT 5 μM; Compound E 1 μM. Scale bar 50 μm.
To probe into the mechanism of activation for the antiviral drug sensors and ABT-737 sensor, the inventors next inhibited γ-secretase with selective inhibitors, DAPT and compound E. Upon inhibition with either of these compounds, ICD driven activation of H2B-mCherry was inhibited (FIG. 4). Inhibition also occurred despite the presence of each associated sensor inducer, indicating γ-secretase plays a crucial role in MIMOsensor activation and is required for ICD release.

[3] = tested on: BCL-xL-BH3(G22)-Gal4-VP64 sensor; assay: BCL-xL-BH3(G22)-Gal4-VP64 sensor: ICD driven H2B-mCherry reporter expression
Procedure: FIG. 3 Activity of BCL-xL-BH3(G22)-Gal4-VP64 upon presence of BCL-xL inhibitors. BCL-xL serves as a ligand binding domain and BH3(G22) serves as an intramolecular peptide. […] H2B mCherry expression is visualized via microscopy. A fluorescent transfection marker is also shown to verify the presence of cells as a smaller corresponding image. Images were taken 48 hours after transfection and drug addition. Scale bar 50 μm.
as §1
The inventors next applied this methodology to a completely different LBD and peptide pair, BCL-xL and the BH3(G22) peptide, while keeping the ICD the same.

T1 sequence (P27958 1027-1208 S1165A): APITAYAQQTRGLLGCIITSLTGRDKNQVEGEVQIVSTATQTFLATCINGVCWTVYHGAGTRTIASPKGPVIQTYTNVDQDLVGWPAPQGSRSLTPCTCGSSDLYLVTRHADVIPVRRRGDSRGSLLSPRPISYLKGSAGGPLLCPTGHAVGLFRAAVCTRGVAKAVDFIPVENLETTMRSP

Compound	sensitivity of the sensor to antiviral drug, by intramolecular peptide [1]	ICD driven activation of H2B-mCherry in presence of sensor inducer [2]	other results
GELDELVYLLDGPGYDPIHS [CP5-46A-4D5E]	intermediate sensitivity	–	–
C[C@H](NC(=O)Cc1cc(F)cc(F)c1)C(=O)N[C@H](C(=O)OC(C)(C)C)c1ccccc1 [DAPT]	–	inhibited; also recorded: ablated	–
CN(C)CC[C@H](CSc1ccccc1)Nc1ccc(S(=O)(=O)NC(=O)c2ccc(N3CCN(Cc4ccccc4-c4ccc(Cl)cc4)CC3)cc2)cc1[N+](=O)[O-] [ABT-737]	–	–	ICD driven H2B-mCherry expression ([3]; BCL-xL-BH3(G22)-TMD-Gal4-VP64 sensor, ABT-737 3 μM, images 24 hours after transfection and drug addition): activates ICD driven H2B-mCherry expression; activation of H2B-mCherry (sensor response to drug) ([3]; microscopy, 48 hours after transfection and drug addition): concentration dependent activation
C[C@H](NC(=O)Cc1cc(F)cc(F)c1)C(=O)N[C@H]1N=C(c2ccccc2)c2ccccc2N(C)C1=O [Compound E]	–	ablated	ICD driven activation of H2B-mCherry in presence of sensor inducer ([2]; listed as compound E): inhibited
DEEMEEC	high sensitivity	–	–
